Measurements published in patent publication US6946492B2, “Use of C2-substituted indan-1-one systems for preparing medicaments for the treatment of obesity” (Aventis Pharma Deutschland GmbH, priority 2001, dated 2005).

What was measured:
female NMRI mice = assay: Anorectic action: cumulative milk consumption after removal of feed for 24 hours; assay type: in vivo; conditions: for cumulative milk consumption by treated animals: evaporated milk, monitored for 7 hours; for Reduction in cumulative milk consumption as % of the contol: vs control animals
Experimental: The anorectic action was tested on female NMRI mice. After removal of feed for 24 hours, the preparation to be tested was administered intraperitoneally (ip) or by gavage (po). The animals were housed singly and, with free access to drinking water, they were offered evaporated milk 30 minutes after administration of the preparation. The consumption of evaporated milk was determined and the general behavior of the animals was monitored every half an hour for 7 hours. The measured milk consumption was compared to that of vehicle-treated control animals.

O=C1c2ccc(Cl)cc2CC1Sc1ccccc1 (stereo not shown) [Example 3, 5-chloro-2-phenylsulfanylindan-1-one]
melting point: 89 °C

CSC1Cc2cc(Cl)ccc2C1=O (stereo not shown) [Example 1, 5-Chloro-2-methylsulfanylindan-1-one]
melting point: 90 °C | cumulative milk consumption by treated animals (female NMRI mice; 10 mg/kg ip): 05/1.20 ml | Reduction in cumulative milk consumption as % of the contol (female NMRI mice; 10 mg/kg ip): 64%

CS(=O)(=O)C1Cc2cc(Cl)ccc2C1=O (stereo not shown) [Example 2, 5-Chloro-2-methanesulfonylindan-1-one]
cumulative milk consumption by treated animals (female NMRI mice; 20 mg/kg ip): 05/1.16 ml | Reduction in cumulative milk consumption as % of the contol (female NMRI mice; 20 mg/kg ip): 70%

O=C1c2ccc(Cl)cc2CC1S(=O)(=O)c1ccccc1 (stereo not shown) [Example 4, 2-benzenesulfonyl-5-chloroindan-1-one]
melting point: 133 °C

C[S+]([O-])C1Cc2cc(Cl)ccc2C1=O (stereo not shown) [Example 9, 5-chloro-2-methanesulfinylindan-1-one]
melting point: 228.87 °C | cumulative milk consumption by treated animals (female NMRI mice; 50 mg/kg po): 05/1.16 ml | Reduction in cumulative milk consumption as % of the contol (female NMRI mice; 50 mg/kg po): 73%
